# Measurements reported in patent US20040171688A1, “Carboxylic acids and derivatives thereof and pharmaceutical compositions containing them” (priority 1997, published 2004).
# What was measured:
# HNF-4α [1] = molecular target: T1, HNF-4α (Rattus norvegicus, UniProt P22449); assay: Transfection assay: COS-7 cells cotransfected with (C3P)3-TK-CAT reporter and pSG5-HNF-4α; format: cell-based; set-up: expressed in transfected cells; host or cells: COS-7; details: for EC50: proligands added to culture medium of COS-7 cells (FIG. 4b), read-out: EC50 of HNF-4α suppression (CAT activity); for inhibition of HNF-4α transcriptional activity, effectiveness in words: transfection assays, added to culture medium; for effect on HNF-4α dependent transcription (CAT activity): free fatty acids added to culture medium of COS-7 cells (FIG. 4a)
# T1 sequence (P22449 1-464 isoform P22449-2): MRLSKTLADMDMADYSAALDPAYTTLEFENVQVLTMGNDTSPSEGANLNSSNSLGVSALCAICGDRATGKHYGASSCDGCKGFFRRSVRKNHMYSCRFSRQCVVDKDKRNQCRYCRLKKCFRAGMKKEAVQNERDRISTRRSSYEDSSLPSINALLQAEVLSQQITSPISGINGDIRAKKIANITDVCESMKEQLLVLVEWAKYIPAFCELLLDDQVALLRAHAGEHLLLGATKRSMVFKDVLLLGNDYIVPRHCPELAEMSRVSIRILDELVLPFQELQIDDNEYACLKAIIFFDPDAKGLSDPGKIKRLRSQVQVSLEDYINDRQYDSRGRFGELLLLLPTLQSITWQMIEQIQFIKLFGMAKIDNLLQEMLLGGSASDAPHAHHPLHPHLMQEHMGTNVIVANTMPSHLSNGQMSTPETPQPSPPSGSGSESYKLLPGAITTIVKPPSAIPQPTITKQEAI
# Description: a. […] Fold induction of CAT activity by transfected HNF-4I is determined by evaluating CAT activity in the presence of pSG5-HNF-4I as compared with pSG5 plasmid and as function of respective fatty acids added to the culture medium as indicated. The figure summarizes 3-4 independent experiments for each fatty acid. Mean ± S.E.
# b. […] Fold induction refers to CAT activity in cells incubated with 3,3,12,12-tetramethyl-tetradecanedioic acid (∘), 3,3,14,14-tetramethyl-hexadecanedioic acid (□) and 3,3,16,16-tetramethyl-octadecanedioic acid (Δ) proligands normalized to the activity in cells incubated in the absence of added proligands.
# COS-7 cells cotransfected for 6 h with the (C3P)3-TK-CAT reporter plasmid (5 μg) and with either the pSG5-HNF-4α expression plasmid ([…]) or the pSG5 plasmid (0.025 μg) added by calcium phosphate precipitation were cultured in serum free medium with fatty acids (complexed with albumin in a molar ratio of 6:1) added as indicated. β-Galactosidase expression vector pRSGAL (1 μg) added to each precipitate served as an internal control for transfection. The (C3P)3-TK-CAT construct was prepared by inserting a synthetic oligonucleotide encompassing the (−87/−66) Apo CIII promoter sequence (5′-[…]-3′) flanked by HindIII restriction site into pBLCAT2^47 upstream of the −105 bp thymidine kinase promoter. The construct containing three copies of the synthetic oligonucleotide in the direct orientation was selected and confirmed by sequencing.
# The intracellular effect of HNF-4α ligands on HNF-4α mediated transcription was evaluated in COS-7 cells cotransfected with an expression vector for HNF-4α and with a CAT reporter plasmid driven by a thymidine kinase promoter and enhanced by one to three C3P copies of the apo CIII gene promoter. Transfected cells were incubated in the presence of free fatty acids and xenobiotic amphipathic carboxylates representing agonistic or antagonistic HNF-4α proligands.
# HNF-4α [2] = molecular target: T2, HNF-4α (Rattus norvegicus, UniProt P22449); assay: Ligand binding assay with [3H]palmitoyl(16:0)-CoA on recombinant GST-HNF-4α(LBD) or His-HNF-4α
# T2 construct: GST-HNF-4α(LBD) fusion protein consisting of amino acids 96-455 of wild type HNF-4α fused to GST; fused on or other part: Glutathione-S-transferase (GST) at the N-terminus of the LBD construct; 6-histidine tag on the full-length construct
# T2 sequence (P22449 105-464 isoform P22449-2 limits assumed): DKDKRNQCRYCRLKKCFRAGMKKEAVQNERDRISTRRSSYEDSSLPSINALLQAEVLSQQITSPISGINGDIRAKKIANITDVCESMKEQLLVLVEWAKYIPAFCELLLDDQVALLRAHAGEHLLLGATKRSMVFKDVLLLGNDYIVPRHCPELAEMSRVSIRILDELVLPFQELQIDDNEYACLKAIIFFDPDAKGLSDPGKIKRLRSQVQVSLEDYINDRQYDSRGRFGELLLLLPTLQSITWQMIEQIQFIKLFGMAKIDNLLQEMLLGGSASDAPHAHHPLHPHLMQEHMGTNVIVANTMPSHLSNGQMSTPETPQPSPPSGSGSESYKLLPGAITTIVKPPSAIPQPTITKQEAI
# Description: a. […] The respective recombinant proteins are incubated to equilibrium with [^3H]palmitoyl(16:0)-CoA (0.05 μCi) and with increasing nonlabeled palmitoyl(16:0)-CoA as indicated.
# b. […] The respective recombinant proteins are incubated with 8 nM of [^3H]palmitoyl(16:0)-CoA (60 Ci/mmol) and with increasing nonlabeled myristoyl(14:0)-CoA as indicated. Percent bound refers to radiolabeled [^3H]palmitoyl(16:0)-CoA in the bound fraction. […] Percent bound refers to radiolabeled [^3H]palmitoyl(16:0)-CoA in the bound fraction.
# Rat HNF-4α1 cDNA(pLEN4S)^1 was subcloned into the glutathione-S-transferase (GST) encoding pGEX-2T plasmid (Pharmacia) and the resultant plasmid was cleaved with smaI and AccI and religated to yield the GST-HNF-4α(LBD) fusion plasmid. […] The full length HNF-4α1 cDNA cloned into 6His-pET11d vector was expressed in E.coli BL21 (DE3)plysS.
# Recombinant GST-HNF-4α(LBD) (100 pmol) or His-HNF-4α (100 pmol) were incubated for 60 min at 22° C. with [^3H]palmitoyl(16:0)-CoA (American RadiolabeledChemicals) in 100 μl of 10 mM phosphate buffer (pH 7.4). Competitor ligands or solvent carrier were added as indicated. Free and HNF-4α bound ^3[H]palmitoyl(16:0)-CoA were separated by […] and bound ligand was quantified by liquid scintillation counting. Nonspecific binding of [^3H]palmitoyl(16:0)-CoA was determined by its binding to the GST moiety or to carbonic anhydrase as nonrelevant protein.
# Binding was exemplified with either the ligand binding domain of HNF-4α fused to glutathione-s-transferase (GST-HNF-4α(LBD)) or the full length HNF-4α protein tagged by 6 histidines (His-HNF-4α).
# [3] = competition with 8 nM [3H]palmitoyl(16:0)-CoA, GST-HNF-4α(LBD) or His-HNF-4α, read-out: EC50 (50% specific competition)
Structure (SMILES),EC50 (HNF-4α [1]) [µM],"inhibition of HNF-4α transcriptional activity, effectiveness in words (HNF-4α [1])",further results
"CC(C)(CCCCCCCCC(C)(C)CCC(=O)O)CCC(=O)O [4,4,13,13-tetramethyl-hexadecane dioic acid]",150,Highly effective,–
"CC(C)Cc1ccc(C(C)C(=O)O)cc1 (centres unmarked) [Ibuprofen, reference compound]",–,–,EC50 (HNF-4α [2]; [3]): 40 µM
"CC(C)(CCCCCCCCCCCCCCCCO)C(=O)O [18-hydroxy-2,2-dimethyl-octadecanoic acid]",–,effective,–
"CC(C)(CCCCCCCCCCCCC(C)(C)C(=O)O)C(=O)O [2,2,15,15-tetramethyl-hexadecane dioic acid]",150,Highly effective,–
"CC(C)(CCCCCCCCCCCCC(C)(C)CC(=O)O)CC(=O)O [3,3,16,16-tetramethyl-octadecanedioic acid]",150,Highly effective,EC50 (HNF-4α [2]; [3]): 8 µM
"CC(C)(CCCCCCCCCCC(C)(C)CCC(=O)O)CCC(=O)O [4,4,15,15-tetramethyl-octadecane dioic acid]",150,Highly effective,–
"CCCCCCCCCCCC(=O)SCCNC(=O)CCNC(=O)[C@H](O)C(C)(C)COP(=O)(O)OP(=O)(O)OC[C@H]1O[C@@H](n2cnc3c(N)ncnc32)[C@H](O)[C@@H]1OP(=O)(O)O [Dodecanoyl(12:0)-CoA, reference compound]",–,–,EC50 (HNF-4α [2]; [3]): 2.3 µM
"CC(C)(CCCCCCCCCCCCCO)CC(=O)O [16-hydroxy-3,3-dimethyl-hexadecanoic acid]",–,effective,–
"CC/C=C\C/C=C\C/C=C\CCCCCCCC(=O)O [α-linolenic(18:3), α-linolenic(18:3) acid]",–,–,effect on HNF-4α dependent transcription (CAT activity) (HNF-4α [1]): suppressive
"CC(C)(CCCCCCCCCCC(C)(C)C(=O)O)C(=O)O [2,2,13,13-tetramethyl-tetradecane dioic acid]",230,–,–
"CC(C)(CCCCCCCCCCC(C)(C)CC(=O)O)CC(=O)O [3,3,14,14-tetramethyl-hexadecanedioic acid]",155,Highly effective,EC50 (HNF-4α [2]; [3]): 8 µM
"CC(C)(CCCCCCCCCCCCCCCO)CC(=O)O [18-hydroxy-3,3-dimethyl-octa-decanoic acid]",–,effective,–
"CC(C)(Oc1ccc(CCNC(=O)c2ccc(Cl)cc2)cc1)C(=O)O [Bezafibrate, reference compound]",260,–,EC50 (HNF-4α [2]): 90 µM
"CC(C)(CCCCCCCCCCCCO)CCC(=O)O [16-hydroxy-4,4-dimethyl-hexadecanoic acid]",–,effective,–
O=C(O)CCCCCCCCCCCCCCCCCO [18-hydroxy-octadecanoic acid],–,effective,–
"COc1ccc2c(c1)c(CC(=O)O)c(C)n2C(=O)c1ccc(Cl)cc1 [Indomethacine, reference compound]",130,–,–
CCCCCCCCCCCCCCCC(=O)O [palmitic(16:0) acid],–,–,effect on HNF-4α dependent transcription (CAT activity) (HNF-4α [1]): dose dependent activation
CCCCCCCC/C=C\CCCCCCCC(=O)SCCNC(=O)CCNC(=O)[C@H](O)C(C)(C)COP(=O)(O)OP(=O)(O)OC[C@H]1O[C@@H](n2cnc3c(N)ncnc32)[C@H](O)[C@@H]1OP(=O)(O)O [Oleoyl(18:1)-CoA],–,–,EC50 (HNF-4α [2]; [3]): 1.4 µM
"CC(C)(CCCCCCCCC(C)(C)CC(=O)O)CC(=O)O [3,3,12,12-tetramethyl-tetradecanedioic acid]",> 300,–,EC50 (HNF-4α [2]; [3]): 40 µM
"CC(C)(CCCCCCCCCCCCCCO)C(=O)O [16-hydroxy-2,2-dimethyl-hexadecanoic acid]",–,effective,–
"CC/C=C\C/C=C\C/C=C\C/C=C\C/C=C\CCCC(=O)O [eicosapentaenoic(20:5) acids, eicosapentaenoic(20:5) acid]",–,–,effect on HNF-4α dependent transcription (CAT activity) (HNF-4α [1]): suppressive
O=C(O)CCCCCCCCCCCCCCCO [16-hydroxy-hexadecanoic acid],–,effective,–
CC(C)(COP(=O)(O)OP(=O)(O)OC[C@H]1O[C@@H](n2cnc3c(N)ncnc32)[C@H](O)[C@@H]1OP(=O)(O)O)[C@@H](O)C(=O)NCCC(=O)NCCS [free CoA],–,–,binding to HNF-4α (in words) (HNF-4α [2]; GST-HNF-4α(LBD) or His-HNF-4α): inactive
"CC(C)(CCCCCCCCCCCCCCC(C)(C)C(=O)O)C(=O)O [2,2,17,17-tetramethyl-octadecane dioic acid]",150,Highly effective,–
"CC(C)(CCCCCCCCCCCCCCO)CCC(=O)O [18-hydroxy-4,4-dimethyl-octadecanoic acid]",–,effective,–
"CC(C)(Oc1ccc(C2CCCc3ccccc32)cc1)C(=O)O (centres unmarked) [Nafenopin, reference compound]",160,–,EC50 (HNF-4α [2]; [3]): 90 µM
CCCCC/C=C\C/C=C\CCCCCCCC(=O)SCCNC(=O)CCNC(=O)[C@H](O)C(C)(C)COP(=O)(O)OP(=O)(O)OC[C@H]1O[C@@H](n2cnc3c(N)ncnc32)[C@H](O)[C@@H]1OP(=O)(O)O [Linoleoyl(18:2)-CoA],–,–,EC50 (HNF-4α [2]; [3]): 1.9 µM
